Assay results taken from the Kinase Knowledgebase extract (Sharma et al. 2016).

Target: MAPK14 (human) (UniProt Q16539)
Experiment: Inhibition of LPS Stimulated TNF-alpha Production in THP-1 Cells
Settings: thp1

Chain of MAPK14 (human) (Q16539 whole entry, looked up): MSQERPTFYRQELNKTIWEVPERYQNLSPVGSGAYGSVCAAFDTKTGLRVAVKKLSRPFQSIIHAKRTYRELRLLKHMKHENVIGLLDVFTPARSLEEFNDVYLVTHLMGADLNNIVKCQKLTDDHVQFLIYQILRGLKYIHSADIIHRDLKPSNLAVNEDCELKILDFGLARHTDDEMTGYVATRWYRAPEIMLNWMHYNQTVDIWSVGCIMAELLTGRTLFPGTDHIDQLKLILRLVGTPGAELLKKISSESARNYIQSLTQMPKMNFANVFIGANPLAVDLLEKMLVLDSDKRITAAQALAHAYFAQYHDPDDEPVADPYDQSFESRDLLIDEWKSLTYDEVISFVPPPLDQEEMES

| IC50 | SMILES |
| --- | --- |
| 0.057 µM | CCc1nc(-c2cccc(Cl)c2)c(-c2ccnc(N[C@@H](C)c3ccccc3)c2)s1 |
| 0.14 µM | Cc1cc(C)cc(-c2nc(N)sc2-c2ccnc(NCc3ccccc3)c2)c1 |
| 0.082 µM | Cc1cccc(-c2nc(N(C)C(=O)c3ccc(C)nc3)sc2-c2ccnc(NC3CCCC3)c2)c1 |
| 0.014 µM | COc1ccc(-c2nc(N)sc2-c2ccnc(NC(=O)c3ccccc3)c2)cc1 |
| 0.12 µM | CCc1nc(-c2cccc(Cl)c2)c(-c2ccnc(NC(C)=O)c2)s1 |
| 0.002 µM | CCCc1nc(-c2cccc(C)c2)c(-c2ccnc(N)c2)s1 |
| 0.0059 µM | CCc1nc(-c2cccc(C)c2)c(-c2ccnc(NC(=O)c3ccsc3)c2)s1 |
| 0.026 µM | COc1ccc(-c2nc(NC(=O)c3cccnc3)sc2-c2ccnc(NC(=O)c3cccnc3)c2)cc1 |
| 0.046 µM | Cc1cccc(-c2nc(N)sc2-c2ccncc2)c1 |
| 0.14 µM | CNc1nc(-c2ccc(OC)cc2)c(-c2ccncc2)s1 |
| 0.18 µM | CNc1nc(-c2ccc(Cl)cc2)c(-c2ccncc2)s1 |
| 0.021 µM | CCC(=O)Nc1cc(-c2sc(-c3ccc(S(C)(=O)=O)cc3)nc2-c2cccc(Cl)c2)ccn1 |
| 0.055 µM | CCc1nc(-c2cccc(Cl)c2)c(-c2ccnc(NC3CCCCC3)c2)s1 |
| 0.015 µM | CCc1nc(-c2ccc(Cl)cc2)c(-c2ccnc(NC(=O)c3ccccc3)c2)s1 |
| 0.02 µM | Cc1cc(C)cc(-c2nc(N)sc2-c2ccnc(NC(=O)c3ccccc3)c2)c1 |
